Tests used:
[1] = test system: MAM-treated rats; conditions: cited from earlier work
[2] = test system: Memory-impaired aged rats; test: water maze probe test after chronic brivaracetam (osmotic mini-pumps); type: in vivo, rat; conditions: 2 mg/kg/day
Description: (§1) The radial arm maze experiments uses acute administration of seletracetam (0-4 mg/kg), brivaracetam (0-4 mg/kg), or saline vehicle given by intraperitoneal injection (in a volume of 1 ml/kg) 30-40 min prior to test sessions. In the chronic treatment experiment, memory-impaired aged rats are implanted subcutaneously in the intrascapular region with osmotic mini-pumps (ALZET, Durect Corporation, Cupertino, Calif.) with brivaracetam (2 mg/kg/day) or saline vehicle starting two weeks prior to assessment in the water maze.
Rats are trained and tested in a novel water maze environment to assess the effect of drug treatment. The water maze used here is housed in a different building and is surrounded by curtains with a novel set of patterns relative to the maze used for initial assessment of cognitive status. The training protocol consists of 6 trials per day for 2 days to locate a submerged escape platform. On each trial, a rat is released in the maze from one of four equally spaced starting positions around the perimeter of the pool. The starting position varies from trial to trial. […] The rat is then removed from the platform and placed in a holding cage for another 40 s before the next trial. Approximately 24 hrs after the last training trial, a probe test in the absence of the escape platform is given to assess spatial memory.

[3] = test system: Memory-impaired aged rats; test: Radial Arm Maze task, 2-hr delay, acute brivaracetam or seletracetam; type: in vivo, rat; conditions: 0.0625-4 mg/kg i.p. 30-40 min before test; repeated measures ANOVA (brivaracetam p=0.039, seletracetam p=0.009)
Description: as §1
A radial arm maze (RAM) task is used to assess effects of acute drug treatment with seletracetam and brivaracetam. This protocol allows within-subject assessment across drugs at different doses. The radial maze consists of eight arms projecting from each side of an octagonal center platform, with a food well located at the distal end of each arm. Plexiglas blocks can be positioned to prevent entry into any arm. Extra-maze cues are provided in the room surrounding the maze and illumination is provided by an overhead light.
Pre-training, as described in detail in Chappell et al. Neuropharmacology 37: 481-487, (1998), consists of habituation, standard win-shift training, and win-shift training with delays interposed between information and memory test phases. […]

[4] = test system: MAM-treated rats; conditions: rat, in vivo; cited from earlier work
[5] = test system: aged-impaired (AI) rats; test: eight-arm Radial Arm Maze task, one-hour delay (levetiracetam, valproate, combination); type: in vivo, rat; conditions: valproate on its own
Description: The effects of levetiracetam on the spatial memory retention of aged-impaired (AI) rats are assessed in a Radial Arm Maze (RAM) behavioral task using vehicle control and five different dosage levels of levetiracetam (1.25 mg/kg/day, 2.5 mg/kg/day, 5 mg/kg/day, 10 mg/kg/day and 20 mg/kg/day). RAM behavioral tasks are preformed on ten AI rats. All six treatment conditions are tested on all ten rats, as described above for the MWM test. The RAM apparatus used consists of eight equidistantly-spaced arms. An elevated maze arm (7 cm width×75 cm length) projects from each facet of an octagonal center platform (30 cm diameter, 51.5 cm height). Clear side walls on the arms are 10 cm high and are angled at 65° to form a trough. A food well (4 cm diameter, 2 cm deep) is located at the distal end of each arm. Froot Loops™ (Kellogg Company) are used as rewards. Blocks constructed of Plexiglas™ (30 cm height×12 cm width) can be positioned to prevent entry to any arm. Numerous extra maze cues surrounding the apparatus are also provided. The AI rats are initially subjected to a pre-training test (Chappell et al. Neuropharmacology 37: 481-487, 1998). The pre-training test consists of a habituation phase (4 days), a training phase on the standard win-shift task (18 days) and another training phase (14 days) in which a brief delay is imposed between presentation of a subset of arms designated by the experimenter (e.g., 5 arms available and 3 arms blocked) and completion of the eight-arm win-shift task (i.e., with all eight arms available). In the habituation phase, rats are familiarized to the maze for an 8-minute session on four consecutive days. In each of these sessions food rewards are scattered on the RAM, initially on the center platform and arms and then progressively confined to the arms. After this habituation phase, a standard training protocol is used, in which a food pellet is located at the end of each arm. Rats receive one trial each day for 18 days. Each daily trial terminates when all eight food pellets have been obtained or when either 16 choices are made or 15 minutes had elapsed. After completion of this training phase, a second training phase is carried out in which the memory demand is increased by imposing a brief delay during the trial. At the beginning of each trial, three arms of the eight-arm maze are blocked. Rats are allowed to obtain food on the five arms to which access is permitted during this initial ‘information phase’ of the trial. Rats are then removed from the maze for 60 seconds, during which time the barriers on the maze are removed, thus allowing access to all eight arms. Rats are then placed back onto the center platform and allowed to obtain the remaining food rewards during this ‘retention test’ phase of the trial. The identity and configuration of the blocked arms varies across trials. The number of “errors” the AI rats make during the retention test phase is tracked. An error occurs in the trial if the rats enter an arm from which food had already been retrieved in the pre-delay component of the trial, or if it re-visits an arm in the post-delay session that has already been visited. After completion of the pre-training test, rats are subjected to trials with more extended delay intervals, i.e., a one-hour delay, between the information phase (presentation with some blocked arms) and the retention test (presentation of all arms). During the delay interval, rats remain off to the side of the maze in the testing room, on carts in their individual home cages. AI rats are pretreated 30-40 minutes before daily trials with a one-time shot of the following six conditions: 1) vehicle control (0.9% saline solution); 2) levetiracetam (1.25 mg/kg/day); 3) levetiracetam (2.5 mg/kg/day); 4) levetiracetam (5 mg/kg/day); 5) levetiracetam (10 mg/kg/day); 6) levetiracetam (20 mg/kg/day); […] Injections are given every other day with intervening washout days. Each AI rat is treated with all six conditions within 23 days of testing. […]

C#Cc1ccc2c(c1)C(c1ccccc1F)=N[C@H](C)c1c(C(=O)OCC)ncn1-2 [SH-053-2′F—R—CH3]
increased locomotor response to amphetamine in MAM-treated rats ([1]; rat, in vivo): reduced
cortical-evoked responses of HPC neurons ([1]; saline-treated and MAM-treated animals): diminished cortical-evoked responses
number of spontaneously active DA neurons in the VTA of MAM rats ([1]; systemic or infused into the ventral HPC, to levels of saline-treated rats): reduces the number of spontaneously active DA neurons

CCC[C@@H]1CC(=O)N([C@@H](CC)C(N)=O)C1 [brivaracetam]
spatial bias for the target quadrant compared to the other quadrants ([2]; 14 days, n=3/group, t(2)=10.000, p=0.010): significant spatial bias
time in the target annulus versus vehicle-treated rats ([2]; t(4)=3.109, p=0.036): significantly more time in the target annulus
time in the target quadrant versus vehicle-treated rats ([2]; t(4)=3.881, p=0.018): significantly more time in the target quadrant
number of errors in the retention phase after the 2-hr delay, effect of dose [3]: significant effect as a function of dose

CC[C@@H](C(N)=O)N1C[C@H](C=C(F)F)CC1=O [seletracetam]
number of errors in the retention phase after the 2-hr delay, effect of dose [3]: significant effect as a function of dose

NC1=N[C@H](O)[C@H]2[C@H]3O[C@]4(O)O[C@@H]([C@@H](O)[C@@]2(N1)[C@@H]4O)[C@]3(O)CO [tetrodotoxin]
augmented amphetamine-induced locomotor behavior [4]: normalized
elevated DA neuron population activity [4]: completely reversed

CCCC(CCC)C(=O)O [valproate]
reducing the number of errors in the radial arm maze ([5]; 25 mg/kg subcutaneous): not at 25 mg/kg or 50 mg/kg
reducing the number of errors in the radial arm maze ([5]; 50 mg/kg subcutaneous): not at 25 mg/kg or 50 mg/kg
reducing the number of errors in the radial arm maze ([5]; 100 mg/kg subcutaneous): effective at 100 mg/kg
